Experimental data reported in BindingDB's records for patent US20240018157 (Schrödinger, 2024).

Legend:
[1] = target: T1, Mucosa-associated lymphoid tissue lymphoma translocation protein 1 (Homo sapiens, UniProt Q9UDY8); assay: MALT1 Protease Assay 1
T1 sequence (Q9UDY8 whole entry): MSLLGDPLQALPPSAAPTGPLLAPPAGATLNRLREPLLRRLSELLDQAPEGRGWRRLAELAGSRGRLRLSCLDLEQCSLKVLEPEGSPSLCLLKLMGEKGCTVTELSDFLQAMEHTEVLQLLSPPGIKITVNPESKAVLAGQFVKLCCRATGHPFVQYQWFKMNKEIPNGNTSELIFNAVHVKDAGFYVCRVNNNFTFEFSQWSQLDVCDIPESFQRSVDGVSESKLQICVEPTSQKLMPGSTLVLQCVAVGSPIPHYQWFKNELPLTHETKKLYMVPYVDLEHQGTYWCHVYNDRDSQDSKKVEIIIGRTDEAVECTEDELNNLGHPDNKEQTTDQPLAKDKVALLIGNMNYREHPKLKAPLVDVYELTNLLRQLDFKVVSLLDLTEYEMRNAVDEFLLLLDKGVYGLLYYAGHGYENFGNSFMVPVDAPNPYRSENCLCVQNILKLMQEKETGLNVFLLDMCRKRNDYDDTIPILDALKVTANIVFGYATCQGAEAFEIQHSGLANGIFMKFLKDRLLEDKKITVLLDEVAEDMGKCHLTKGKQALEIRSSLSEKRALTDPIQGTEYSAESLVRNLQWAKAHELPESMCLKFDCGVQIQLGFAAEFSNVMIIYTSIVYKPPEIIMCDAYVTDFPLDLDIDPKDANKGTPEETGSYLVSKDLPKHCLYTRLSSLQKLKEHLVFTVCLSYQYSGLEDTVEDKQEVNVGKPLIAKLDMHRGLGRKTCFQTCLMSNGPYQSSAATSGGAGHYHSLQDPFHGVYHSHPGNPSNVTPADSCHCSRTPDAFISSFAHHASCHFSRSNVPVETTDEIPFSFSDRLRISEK
Description: The final assay buffer includes 2 nM of MALT1 full-length protein, 50 μM Ac-LRSR-AMC substrate, 50 mM Tris pH 7.5, 600 mM Sodium Citrate, 1 mM DTT, 1 mM EDTA, and 0.05% BSA in 384-well plate format using black microtiter square well plates (Optiplate 384-F, Perkin Elmer). Test compounds were dissolved in 100% DMSO at stock of 10 mM, with final DMSO concentration 0.1%. Test compounds were pre-incubated with MALT1 protein for 2 h at room temperature. Substrate was added after the pre-incubation and fluorescence signal was measured using Envision at excitation 355 nm and emission 460 nm after 8 hr incubation at RT. Increase in the assay signal was linear over this period and proportional with increase in the enzyme content.

[2] = target: T1, Mucosa-associated lymphoid tissue lymphoma translocation protein 1; assay: MALT1 Protease Assay 2
Description: Test compounds were dissolved in 100% DMSO at stock of 10 mM, with final DMSO concentration 0.1%. Test compounds were pre-incubated with MALT1 protein for 2 h at room temperature.

Row | IC50 [1] | IC50 [2] | Compound
1 | > 1000 nM | 100 to 1000 nM | C[C@@]1(C(F)(F)F)CN(C(=O)N[C@@H]2CCCC(F)(F)C2)c2cnc3cc(Cl)nn3c21 [US20240018157, Example 54]
2 | < 10 nM |  | Cn1ccc(-c2ncc(NC(=O)N3C[C@@](C)(C(F)(F)F)c4c3cnc3cc(Cl)nn43)cc2Cl)n1 [US20240018157, Example 25]
3 | < 10 nM |  | C[C@@]1(C(F)(F)F)CN(C(=O)Nc2cnc(-n3nccn3)c(Cl)c2)c2cnc3cc(Cl)nn3c21 [US20240018157, Example 16]
